Assay results taken from US8609661B2, “Pyrimido-pyrrolo-quinoxalinedione inhibitors of cystic fibrosis transmembrane conductance regulator protein and uses therefor” (The Regents of the University of California, priority 2009, dated 2013).

Key:
[1] = system: cellular cAMP production; experiment: Cellular cAMP assayed in CHO-K1 cells, basal and forskolin-stimulated; assay type: cell-based; settings: 10 μM; 20 μM forskolin
Procedure: FIG. 3A: Apical membrane current measured in CFTR-expressing FRT cells in the presence of a transepithelial chloride gradient and with amphotericin B permeabilization of the basolateral membrane. CFTR was activated by CPT-cAMP (chlorophenylthio-cAMP) (100 μM), with increasing concentrations of PPQ-102 added as shown. Left: Original recording. Right: Dose-response (S.E. n=4). FIG. 3B: Measurements as in FIG. 3A, but with apigenin (100 μM) or IBMX (100 μM) as agonists. The data are representative of 3 sets of experiments. FIG. 3C: Short-circuit current measured in T84 (left) and human bronchial airway epithelial cells (right). CFTR was maximally activated by 10 μM forskolin and 100 μM IBMX (‘forsk’). Current in the absence of inhibitor is indicated as ‘control.’ FIG. 3D: Calcium-activated chloride channels were activated by UTP (100 μM) in cystic fibrosis (CFTR-deficient) human bronchial epithelial cells, with PPQ-102 added as indicated. ENaC (epithelial sodium channel) was inhibited by amiloride (10 μM). FIG. 3E: Cellular cAMP assayed in CHO—K1 cells under basal conditions and after addition of 20 μM forskolin (S.E. n=4, differences with PPQ-102, not significant).

[2] = molecular target: T1, human wildtype CFTR (Homo sapiens, UniProt P13569); experiment: Short-circuit (apical membrane) chloride current in CFTR-expressing FRT cells, basolateral membrane permeabilized; assay type: cell-based
T1 construct: expressed in transfected cells; host or cells: Fischer rat thyroid (FRT) cells
Procedure: C. Short-Circuit Current Measurements—Snapwell inserts containing CFTR-expressing FRT cells (stably expressing human wildtype CFTR), T84 cells, or human bronchial epithelial cells were mounted in Ussing chambers. For FRT cells the hemichambers were filled with 5 mL of 75 mM NaCl and 75 mM Na gluconate (apical), and 150 mM NaCl (basolateral) (pH 7.3), and the basolateral membrane was permeabilized with 250 μg/mL amphotericin B. For bronchial epithelial cells and T84 cells, both hemichambers contained a Krebs-bicarbonate solution. Hemichambers were continuously bubbled with air (FRT cells) or 5% CO2 in air (bronchial and T84 cells) and maintained at 37° C. Short-circuit current was recorded continuously using a DVC-1000 voltage clamp (World Precision Instruments, Sarasota, Fla.) using Ag/AgCl electrodes and 3 M KCl agar bridges.
Short circuit current analysis was performed as described in Example 2. […] Measurements were taken in the presence of a transepithelial chloride gradient and following basolateral membrane permeabilization with amphotericin B so that measured current is a direct, quantitative measure of CFTR chloride conductance.

[3] = molecular target: T1, human wildtype CFTR; experiment: Single-channel cell-attached patch recordings of CFTR; assay type: cell-based; settings: 1 μM
Procedure: (§1) D. Patch-Clamp Analysis—Whole cell recordings were performed using FRT cells stably expressing human wildtype CFTR. The pipette solution contained 140 mM N-methyl D-glucamine chloride (NMDG-Cl), 5 mM EGTA, 1 mM MgCl2, 1 mM Tris-ATP, and 10 mM HEPES (pH 7.2), and the bath solution contained 140 mM N-methyl D-glucamine chloride, 1 mM CaCl2, 1 mM MgCl2, 10 mM glucose and 10 mM HEPES (pH 7.4). Experiments were performed at room temperature (22-25° C.). Pipettes were pulled from borosilicate glass and had resistances of 3-5 Mohm after fire polishing. […] After establishing the whole-cell configuration, CFTR was activated by adding forskolin and 3-isobutyl-1-methylxanthine (IBMX). Whole cell currents were elicited by applying hyperpolarizing and depolarizing voltage pulses from a holding potential of 0 mV to potentials between −100 mV and +100 mV in steps of 20 mV. Current was filtered at 5 kHz and digitized and analyzed using an AxoScope 10.0 system and a Digidata® 1440A AC/DC converter (Molecular Devices, Sunnyvale, Calif.). The single channel characteristics of CFTR were analyzed in the cell-attached configuration using fire-polished pipettes with a resistance of 10-15 Mohm. The pipette solution contained (in mM): 140 NMDG-Cl, 1 CaCl2, 1 MgCl2, 5 glucose and 10 HEPES (pH 7.4), and the bath solution contained 140 KCl, 1 CaCl2, 1 MgCl2, 5 glucose and 10 HEPES (pH 7.4). Recordings were performed at room temperature using an Axopatch-200B (Axon Instruments, Foster City, Calif.). The voltage and current data were low-pass filtered at 1 kHz and stored for later analysis. Single channel data were digitally filtered at 25 Hz, and analyzed using Clampfit 10.0 software (Axon Instruments).
Cell-attached patch recordings were performed to examine single-channel CFTR function.

[4] = molecular target: CFTR (Homo sapiens, UniProt P13569); experiment: Short-circuit current in non-permeabilized T84 and human bronchial epithelial cells; assay type: cell-based; design: endogenous in cells; host or cells: T84 human intestinal epithelial cells; primary human bronchial epithelial cells; settings: forskolin and IBMX, read-out: IC50 for CFTR inhibition
[5] = system: renal cysts in E13.5 embryonic kidneys; experiment: Embryonic kidney organ culture model of PKD (8-Br-cAMP-induced cysts); assay type: cell-based, mouse
Procedure: E. Embryonic Organ Culture Model of PKD—Mouse embryos were obtained at embryonic day 13.5 (E13.5). Metanephroi were dissected and placed on transparent Falcon […] diameter porous cell culture inserts as described (see, e.g., Sonawane et al., Chem. Biol. 15:718-728 (2008)). To the culture inserts was added DMEM/Ham's F-12 nutrient medium supplemented with 2 mM L-glutamine, 10 mM HEPES, 5 μg/mL insulin, 5 μg/mL transferrin, 2.8 nM selenium, 25 ng/ml prostaglandin E, 32 pg/ml T3, 250 U/ml penicillin and 250 μg/ml streptomycin. Kidneys were maintained in a 37° C. humidified CO2 incubator for up to 8 days. Culture medium containing 100 μM 8-Br-cAMP, with or without CFTR inhibitor, was replaced (in the lower chamber) every 12 h. In some studies CFTR inhibitor was added at 3 days after 8-Br-cAMP to test its efficacy in reversing pre-formed cysts. Kidneys were photographed using a Nikon inverted microscope (Nikon TE 2000-S) equipped with 2× objective lens, 520 nm bandpass filter, and high-resolution CCD camera. Percentage cyst area was calculated as total cyst area divided by total kidney area.
Kidneys were removed from day 13.5 embryonic mice and maintained in organ culture where they continue to grow. […] Multiple cysts did form and progressively enlarged when the culture medium was supplemented with the CFTR agonist 8-Br-cAMP (see FIG. 5A, left). […] In agreement with the transmission light micrographs of intact kidneys, PPQ-102 reduced cyst size.

[6] = molecular target: T1, human wildtype CFTR; experiment: Whole-cell patch-clamp in CFTR-expressing FRT cells; assay type: cell-based; settings: 0.5 μM; voltage-independent block
Procedure: as §1, with “The pipette solution contained (in mM): 140 NMDG-Cl, 1 CaCl2, 1 MgCl2, 5 glucose and 10 HEPES (pH 7.4), and the bath solution contained 140 KCl, 1 CaCl2, 1 MgCl2, 5 glucose and 10 HEPES (pH 7.4). Recordings were performed at room temperature using an Axopatch-200B (Axon Instruments, Foster City, Calif.). The voltage and current data were low-pass filtered at 1 kHz and stored for later analysis.” left out

T1 sequence (P13569 whole entry): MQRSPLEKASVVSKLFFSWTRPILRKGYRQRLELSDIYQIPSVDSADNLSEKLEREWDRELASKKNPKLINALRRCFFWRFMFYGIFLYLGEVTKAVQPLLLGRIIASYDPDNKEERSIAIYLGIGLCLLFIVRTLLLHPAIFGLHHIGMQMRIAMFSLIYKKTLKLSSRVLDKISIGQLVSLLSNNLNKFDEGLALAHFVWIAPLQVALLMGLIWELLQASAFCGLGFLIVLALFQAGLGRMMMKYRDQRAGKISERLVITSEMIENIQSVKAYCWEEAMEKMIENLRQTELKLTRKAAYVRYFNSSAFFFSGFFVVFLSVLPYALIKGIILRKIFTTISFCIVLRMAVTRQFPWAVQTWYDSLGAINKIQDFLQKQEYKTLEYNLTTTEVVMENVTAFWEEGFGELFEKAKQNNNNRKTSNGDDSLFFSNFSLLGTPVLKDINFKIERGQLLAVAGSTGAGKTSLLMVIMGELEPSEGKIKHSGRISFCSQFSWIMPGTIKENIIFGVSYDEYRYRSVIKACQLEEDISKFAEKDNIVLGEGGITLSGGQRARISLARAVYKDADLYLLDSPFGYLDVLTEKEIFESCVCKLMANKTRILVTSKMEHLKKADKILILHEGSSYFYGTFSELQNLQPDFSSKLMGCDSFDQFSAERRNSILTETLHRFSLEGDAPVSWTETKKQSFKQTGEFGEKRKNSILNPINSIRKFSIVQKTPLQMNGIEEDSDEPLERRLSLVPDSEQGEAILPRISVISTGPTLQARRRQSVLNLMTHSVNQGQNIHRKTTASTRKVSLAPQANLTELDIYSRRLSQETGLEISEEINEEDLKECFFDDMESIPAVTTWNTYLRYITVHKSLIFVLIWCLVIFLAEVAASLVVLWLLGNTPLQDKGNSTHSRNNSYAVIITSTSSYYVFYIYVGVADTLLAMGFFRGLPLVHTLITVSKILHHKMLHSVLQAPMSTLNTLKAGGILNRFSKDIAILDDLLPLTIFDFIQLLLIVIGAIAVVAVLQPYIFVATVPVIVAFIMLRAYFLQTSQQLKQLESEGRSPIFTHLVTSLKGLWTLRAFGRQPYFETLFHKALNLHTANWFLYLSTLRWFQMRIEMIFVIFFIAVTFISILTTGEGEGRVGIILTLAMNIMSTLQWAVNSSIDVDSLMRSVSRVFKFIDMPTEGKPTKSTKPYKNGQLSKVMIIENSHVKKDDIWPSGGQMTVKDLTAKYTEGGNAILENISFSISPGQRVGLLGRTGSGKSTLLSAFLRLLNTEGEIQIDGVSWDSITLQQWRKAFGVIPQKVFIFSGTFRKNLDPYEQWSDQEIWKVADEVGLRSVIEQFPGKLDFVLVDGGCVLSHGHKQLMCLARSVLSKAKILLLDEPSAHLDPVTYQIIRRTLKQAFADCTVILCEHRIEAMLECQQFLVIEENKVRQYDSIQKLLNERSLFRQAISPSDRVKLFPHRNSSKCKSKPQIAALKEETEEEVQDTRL
CFTR, sequence (P13569 whole entry): as above

## Cc1ccc(C2Nc3ccccc3-n3c(-c4ccccc4)c4c(=O)n(C)c(=O)n(C)c4c32)o1 (racemic) [PPQ-102, 7,9-Dimethyl-11-phenyl-6-(5-methylfuran-2-yl)-5,6-dihydro-pyrimido[4′,5′-3,4]pyrrolo[1,2-a]quinoxaline-8,10-(7H,9H)-dione]
[1]
  effect on basal or forskolin-stimulated cAMP production: no significant effect
[2]; 30 min incubation with 2 μM, then 10 min washout
  reversibility of inhibition: complete restoration of CFTR chloride current
[2]; CFTR stimulated by CPT-cAMP, transepithelial chloride gradient, amphotericin B, read-out: IC50 for inhibition of CFTR chloride conductance
  IC50: ~0.09 µM
[2]; CPT-cAMP stimulation, higher concentrations
  inhibition of CFTR at higher concentrations: approximately 100%
[2]; apigenin (100 μM) or IBMX (100 μM) as agonists
  potency with apigenin or IBMX as agonist compared to CPT-cAMP: mildly reduced
[3]
  Mean channel open time: did not significantly change
  mean channel closed time: greatly increased
[3]; control 0.50±0.04, forskolin and IBMX, +80 mV
  Channel open probability (Po): 0.14±0.03
[3]; control 7 pS at +80 mV
  unitary conductance: did not change
[4]
  IC50: < 1 µM
[5]; 2.5 μM removed after 3 days, 8-Br-cAMP continued
  reversibility of cyst inhibition: reversible
[5]; 5 μM added at day 3 of 8-Br-cAMP, over 1 and 2 days
  effect on pre-formed cysts: reduction in cyst size
[5]; 2.5 and 5 μM, 4 days in culture, 100 μM 8-Br-cAMP
  cysts at 2.5 and 5 μM: near complete absence of cysts
[5]; in culture medium
  effect on kidney growth: did not affect kidney growth
[6]
  CFTR current-voltage relationship after addition: remained linear
